Experimental data taken from US12304890B2, “R-type pyridyloxycarboxylic acid, salt and ester derivative thereof, and preparation method therefor, and herbicidal composition and application thereof” (Qingdao Kingagroot Chemical Compound Co., Ltd., priority 2018, dated 2025).

Test system: Monocotyledonous and dicotyledonous weed seeds and main crop seeds
Test: Post-emergence test experiment, other weeds and crops (Table 4, 1000 g a.i./ha)
Format: in vivo
Details: 3 weeks in greenhouse, fresh weight inhibition
Protocol: The above described growth inhibition rate is fresh weight inhibition rate.
Post-emergence test experiment: Monocotyledonous and dicotyledonous weed seeds and main crop seeds (i. e. wheat, corn, rice, soybean, cotton, oilseed, millet and sorghum.) were put into a plastic pot loaded with soil. Then covered with 0.5-2 cm soil, the seeds were allowed to grow in good greenhouse environment. The test plants were treated at 2-3 leaf stage 2 weeks after sowing. The test compounds of the invention were dissolved with acetone respectively, then added with tween-80, and using 1.5 liters per hectare of an emulsible concentrate of methyl oleate as a synergist, and diluted by certain amount of water to certain concentration. The solution was sprayed to the plants with a sprayer.

| Compound | Activity level (growth inhibition rate), Abutilon theophrasti Medic. | Activity level (growth inhibition rate), Galium aparine | Activity level (growth inhibition rate), Monochoria Vaginalis |
| --- | --- | --- | --- |
| COC(=O)C(N)Oc1nc(F)c(Cl)c(N)c1Cl (stereo not drawn) [Compound 2-56] | 5 (Level 5: the growth inhibition rate is greater than 85%) | 5 (Level 5: the growth inhibition rate is greater than 85%) | 5 (Level 5: the growth inhibition rate is greater than 85%) |
| COC(=O)C(Oc1nc(F)c(Cl)c(N)c1Cl)SC (stereo not drawn) [Compound 2-57] | 5 (Level 5: the growth inhibition rate is greater than 85%) | 5 (Level 5: the growth inhibition rate is greater than 85%) | 5 (Level 5: the growth inhibition rate is greater than 85%) |
| COC(=O)C(OC)Oc1nc(F)c(Cl)c(N)c1Cl (stereo not drawn) [Compound 2-58] | 5 (Level 5: the growth inhibition rate is greater than 85%) | 5 (Level 5: the growth inhibition rate is greater than 85%) | 5 (Level 5: the growth inhibition rate is greater than 85%) |
| COC(=O)C(CN(C)C)Oc1nc(F)c(Cl)c(N)c1Cl (stereo not drawn) [Compound 2-59] | 5 (Level 5: the growth inhibition rate is greater than 85%) | 5 (Level 5: the growth inhibition rate is greater than 85%) | 5 (Level 5: the growth inhibition rate is greater than 85%) |
| COC(=O)C(CC#N)Oc1nc(F)c(Cl)c(N)c1Cl (stereo not drawn) [Compound 2-60] | 5 (Level 5: the growth inhibition rate is greater than 85%) | 5 (Level 5: the growth inhibition rate is greater than 85%) | 5 (Level 5: the growth inhibition rate is greater than 85%) |
| COC(=O)C(C#N)Oc1nc(F)c(Cl)c(N)c1Cl (stereo not drawn) [Compound 2-61] | 5 (Level 5: the growth inhibition rate is greater than 85%) | 5 (Level 5: the growth inhibition rate is greater than 85%) | 5 (Level 5: the growth inhibition rate is greater than 85%) |
| COC(=O)C(Oc1nc(F)c(Cl)c(N)c1Cl)c1ccccc1 (stereo not drawn) [Compound 2-62] | 5 (Level 5: the growth inhibition rate is greater than 85%) | 5 (Level 5: the growth inhibition rate is greater than 85%) | 5 (Level 5: the growth inhibition rate is greater than 85%) |
| COC(=O)C(Cc1ccccc1)Oc1nc(F)c(Cl)c(N)c1Cl (stereo not drawn) [Compound 2-63] | 5 (Level 5: the growth inhibition rate is greater than 85%) | 5 (Level 5: the growth inhibition rate is greater than 85%) | 5 (Level 5: the growth inhibition rate is greater than 85%) |
| COC(=O)[C@H](Oc1nc(F)c(Cl)c(N)c1Cl)c1cccc(Cl)c1 [Compound 2-64] | 5 (Level 5: the growth inhibition rate is greater than 85%) | 5 (Level 5: the growth inhibition rate is greater than 85%) | 5 (Level 5: the growth inhibition rate is greater than 85%) |
| COC(=O)[C@@H](Oc1nc(F)c(Cl)c(N)c1Cl)c1cccs1 [Compound 2-65] | 5 (Level 5: the growth inhibition rate is greater than 85%) | 5 (Level 5: the growth inhibition rate is greater than 85%) | 5 (Level 5: the growth inhibition rate is greater than 85%) |
| COC(=O)[C@@H](Oc1nc(F)c(Cl)c(N)c1Cl)c1nc(Cl)cs1 [Compound 2-67] | 5 (Level 5: the growth inhibition rate is greater than 85%) | 5 (Level 5: the growth inhibition rate is greater than 85%) | 5 (Level 5: the growth inhibition rate is greater than 85%) |
